Measured values from ChEMBL document CHEMBL1201862, “PubChem BioAssay data set” (2004).
Each block holds one compound with its values, some of them ahead of it. Calls of active or inactive are those of the source.

Assays:
Assay type in all cases: functional
Melanocortin receptor 4 = Melanocortin receptor 4 (Homo sapiens, UniProt P32245); assay: MC4R antagonist potency on cAMP, dose response, cell-based, TR-FRET, biased antagonists (AID 602298);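 also: antagonist potency against agonist-stimulated cAMP production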
[1] = nonselective inhibitors of cellular cAMP signaling, dose response, counter-screen for MC4R biased antagonist project, cell-based, TR-FRET cAMP detection (AID 602305);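 also: U2OS cells stimulated with forskolin near its EC80 as the cAMP inducer; potency is for inhibition of forskolin-stimulated cAMP signaling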
[2] = biological target: Cyclin-dependent kinase 2 (Homo sapiens, UniProt P24941);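 also: CDK2 measured as one member of a broad kinome profiling panel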
[3] = biological target: Serine/threonine-protein kinase pim-1 (Homo sapiens, UniProt P11309)
[4] = biological target: Cell division cycle 7-related protein kinase (Homo sapiens, UniProt O00311);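 also: value obtained from a kinome-wide kinase panel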
[5] = biological target: Homeodomain-interacting protein kinase 2 (Homo sapiens, UniProt Q9H2X6);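 also: measured within a kinome-wide kinase profiling panel, HIPK2 being one panel member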
[6] = biological target: MAP kinase-interacting serine/threonine-protein kinase 2 (Homo sapiens, UniProt Q9HBH9)
[7] = biological target: Interleukin-1 receptor-associated kinase 4 (Homo sapiens, UniProt Q9NWZ3)
[8] = biological target: Glycogen synthase kinase-3 beta (Homo sapiens, UniProt P49841);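 also: value comes from a broad kinome profiling panel, with GSK3B as the panel member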
[9] = biological target: cAMP-dependent protein kinase catalytic subunit alpha (Homo sapiens, UniProt P17612)
[10] = biological target: Dual specificity protein kinase CLK4 (Homo sapiens, UniProt Q9HAZ1)
[11] = biological target: Mitogen-activated protein kinase kinase kinase kinase 4 (Homo sapiens, UniProt O95819)
[12] = biological target: Neuropeptides B/W receptor type 1 (Homo sapiens, UniProt P48145); assay: GPR7 antagonist potency, late-stage follow-up, cell-based, fluorescence, dose response, set 5 (AID 588566)
[13] = biological target: Melanin-concentrating hormone receptor 1 (Homo sapiens, UniProt Q99705); assay: Late-stage fluorescence-based counterscreen for antagonists of the G-protein coupled receptor 7 (GPR7): cell-based dose response assay to identify antagonists of the melanin-concentrating hormone receptor 1 (MCHR1) Set 5.
Chain of Melanin-concentrating hormone receptor 1 (Q99705 whole entry): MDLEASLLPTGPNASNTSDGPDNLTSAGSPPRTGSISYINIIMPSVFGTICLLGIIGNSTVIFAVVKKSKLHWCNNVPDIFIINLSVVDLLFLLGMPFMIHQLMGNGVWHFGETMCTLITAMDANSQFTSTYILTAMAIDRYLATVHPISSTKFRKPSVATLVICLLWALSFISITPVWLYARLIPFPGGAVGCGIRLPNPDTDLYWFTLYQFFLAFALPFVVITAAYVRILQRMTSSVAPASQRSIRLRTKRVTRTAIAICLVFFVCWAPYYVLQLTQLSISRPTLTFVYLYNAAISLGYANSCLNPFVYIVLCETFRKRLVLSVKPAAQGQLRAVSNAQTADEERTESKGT

Chain of Homeodomain-interacting protein kinase 2 (Q9H2X6 whole entry): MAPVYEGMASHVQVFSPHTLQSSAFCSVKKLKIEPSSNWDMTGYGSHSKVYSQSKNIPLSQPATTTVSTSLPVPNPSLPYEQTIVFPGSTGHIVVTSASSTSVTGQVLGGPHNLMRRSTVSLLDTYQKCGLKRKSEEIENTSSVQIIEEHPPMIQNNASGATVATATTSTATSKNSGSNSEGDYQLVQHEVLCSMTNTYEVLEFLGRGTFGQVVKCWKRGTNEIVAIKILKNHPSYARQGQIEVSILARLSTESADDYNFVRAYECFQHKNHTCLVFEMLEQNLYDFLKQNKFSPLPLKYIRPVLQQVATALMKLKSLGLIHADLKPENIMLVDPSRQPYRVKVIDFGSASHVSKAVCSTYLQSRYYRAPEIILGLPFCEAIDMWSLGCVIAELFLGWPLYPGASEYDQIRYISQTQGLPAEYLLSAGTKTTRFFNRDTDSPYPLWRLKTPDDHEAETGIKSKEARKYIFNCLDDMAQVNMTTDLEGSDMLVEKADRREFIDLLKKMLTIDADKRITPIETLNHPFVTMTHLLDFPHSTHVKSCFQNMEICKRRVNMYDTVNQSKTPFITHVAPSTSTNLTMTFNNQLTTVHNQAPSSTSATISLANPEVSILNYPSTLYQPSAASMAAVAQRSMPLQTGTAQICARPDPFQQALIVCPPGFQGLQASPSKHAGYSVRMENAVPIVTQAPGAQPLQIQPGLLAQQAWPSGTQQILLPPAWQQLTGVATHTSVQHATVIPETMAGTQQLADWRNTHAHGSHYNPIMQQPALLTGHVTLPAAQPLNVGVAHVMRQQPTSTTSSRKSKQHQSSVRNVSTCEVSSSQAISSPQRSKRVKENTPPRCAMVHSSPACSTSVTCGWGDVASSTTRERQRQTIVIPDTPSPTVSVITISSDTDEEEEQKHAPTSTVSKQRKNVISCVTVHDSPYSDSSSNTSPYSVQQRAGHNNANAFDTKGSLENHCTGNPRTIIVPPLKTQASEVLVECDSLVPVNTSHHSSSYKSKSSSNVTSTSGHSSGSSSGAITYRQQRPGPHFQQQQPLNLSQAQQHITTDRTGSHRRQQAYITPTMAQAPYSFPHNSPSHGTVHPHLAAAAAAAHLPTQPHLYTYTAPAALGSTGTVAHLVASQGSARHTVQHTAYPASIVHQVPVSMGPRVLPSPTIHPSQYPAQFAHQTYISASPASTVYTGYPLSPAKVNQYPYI
Chain of MAP kinase-interacting serine/threonine-protein kinase 2 (Q9HBH9 whole entry): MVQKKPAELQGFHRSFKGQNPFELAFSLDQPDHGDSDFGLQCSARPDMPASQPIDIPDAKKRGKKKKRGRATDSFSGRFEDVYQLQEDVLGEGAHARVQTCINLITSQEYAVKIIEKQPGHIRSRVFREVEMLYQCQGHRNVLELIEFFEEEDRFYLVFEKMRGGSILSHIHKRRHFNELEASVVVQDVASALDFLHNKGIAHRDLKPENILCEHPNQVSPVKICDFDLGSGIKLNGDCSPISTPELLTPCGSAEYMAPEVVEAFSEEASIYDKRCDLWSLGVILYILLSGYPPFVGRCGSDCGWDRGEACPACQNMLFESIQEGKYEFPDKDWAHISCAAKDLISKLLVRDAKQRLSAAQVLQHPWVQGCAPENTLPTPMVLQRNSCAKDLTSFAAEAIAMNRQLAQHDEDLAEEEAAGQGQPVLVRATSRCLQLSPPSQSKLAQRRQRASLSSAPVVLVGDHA
Chain of Serine/threonine-protein kinase pim-1 (P11309 whole entry): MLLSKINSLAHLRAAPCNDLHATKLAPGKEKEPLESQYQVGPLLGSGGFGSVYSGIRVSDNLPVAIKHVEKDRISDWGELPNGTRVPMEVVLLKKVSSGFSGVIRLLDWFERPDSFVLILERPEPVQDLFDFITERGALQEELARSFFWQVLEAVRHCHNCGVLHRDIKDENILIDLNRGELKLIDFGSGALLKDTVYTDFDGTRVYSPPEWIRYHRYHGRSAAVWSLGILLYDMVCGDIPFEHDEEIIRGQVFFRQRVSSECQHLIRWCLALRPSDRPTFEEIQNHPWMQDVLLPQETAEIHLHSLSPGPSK
Chain of Cell division cycle 7-related protein kinase (O00311 whole entry): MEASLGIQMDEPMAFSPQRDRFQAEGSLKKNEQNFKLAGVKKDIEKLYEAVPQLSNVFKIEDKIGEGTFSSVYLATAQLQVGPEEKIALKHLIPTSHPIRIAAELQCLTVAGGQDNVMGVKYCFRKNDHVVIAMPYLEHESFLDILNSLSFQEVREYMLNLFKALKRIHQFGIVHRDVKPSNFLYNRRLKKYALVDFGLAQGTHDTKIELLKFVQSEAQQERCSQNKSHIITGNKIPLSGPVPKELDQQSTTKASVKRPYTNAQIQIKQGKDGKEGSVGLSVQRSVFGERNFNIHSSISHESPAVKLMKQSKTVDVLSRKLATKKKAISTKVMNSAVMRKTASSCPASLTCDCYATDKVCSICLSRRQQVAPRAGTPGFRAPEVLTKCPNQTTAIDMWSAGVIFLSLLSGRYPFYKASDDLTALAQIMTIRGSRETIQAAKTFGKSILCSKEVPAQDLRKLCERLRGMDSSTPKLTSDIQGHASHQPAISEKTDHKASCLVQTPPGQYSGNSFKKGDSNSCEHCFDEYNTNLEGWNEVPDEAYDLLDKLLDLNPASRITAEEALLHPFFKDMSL
Chain of Dual specificity protein kinase CLK4 (Q9HAZ1 whole entry): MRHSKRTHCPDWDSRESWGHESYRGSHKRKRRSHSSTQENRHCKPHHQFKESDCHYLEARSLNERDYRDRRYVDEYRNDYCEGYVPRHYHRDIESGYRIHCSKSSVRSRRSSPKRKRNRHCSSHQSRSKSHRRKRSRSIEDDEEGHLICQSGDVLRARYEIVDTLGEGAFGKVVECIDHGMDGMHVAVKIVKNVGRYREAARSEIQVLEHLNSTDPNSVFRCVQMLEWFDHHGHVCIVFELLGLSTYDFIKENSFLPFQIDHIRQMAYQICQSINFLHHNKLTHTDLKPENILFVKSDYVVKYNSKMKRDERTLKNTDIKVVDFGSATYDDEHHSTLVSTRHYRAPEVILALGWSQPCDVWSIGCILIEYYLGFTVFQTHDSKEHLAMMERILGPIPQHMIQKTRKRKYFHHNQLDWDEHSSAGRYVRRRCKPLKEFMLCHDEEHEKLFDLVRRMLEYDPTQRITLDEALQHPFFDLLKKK
Chain of Interleukin-1 receptor-associated kinase 4 (Q9NWZ3 whole entry): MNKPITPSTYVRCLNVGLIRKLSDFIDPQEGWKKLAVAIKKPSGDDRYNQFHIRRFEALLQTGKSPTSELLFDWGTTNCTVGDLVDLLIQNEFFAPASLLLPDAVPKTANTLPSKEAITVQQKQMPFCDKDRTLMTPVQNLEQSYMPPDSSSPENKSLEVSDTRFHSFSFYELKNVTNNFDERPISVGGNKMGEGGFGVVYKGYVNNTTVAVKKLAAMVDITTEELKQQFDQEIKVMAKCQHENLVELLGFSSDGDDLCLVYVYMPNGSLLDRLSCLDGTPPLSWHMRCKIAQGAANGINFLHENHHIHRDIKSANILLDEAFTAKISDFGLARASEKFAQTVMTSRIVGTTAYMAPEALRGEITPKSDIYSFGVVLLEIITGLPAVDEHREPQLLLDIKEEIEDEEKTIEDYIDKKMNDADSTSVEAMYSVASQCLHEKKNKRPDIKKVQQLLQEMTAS
Chain of Glycogen synthase kinase-3 beta (P49841 whole entry): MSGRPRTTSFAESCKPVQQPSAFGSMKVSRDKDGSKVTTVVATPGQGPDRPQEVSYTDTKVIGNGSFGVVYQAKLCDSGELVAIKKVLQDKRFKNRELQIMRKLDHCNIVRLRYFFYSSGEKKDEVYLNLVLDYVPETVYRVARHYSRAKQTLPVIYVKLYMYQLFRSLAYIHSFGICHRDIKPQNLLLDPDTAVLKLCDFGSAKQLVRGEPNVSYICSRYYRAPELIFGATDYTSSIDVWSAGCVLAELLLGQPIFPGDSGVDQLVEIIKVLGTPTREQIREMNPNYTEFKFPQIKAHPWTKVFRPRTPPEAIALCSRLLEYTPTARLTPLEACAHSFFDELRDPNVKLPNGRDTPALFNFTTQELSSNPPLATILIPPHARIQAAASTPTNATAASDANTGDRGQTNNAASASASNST
Chain of Neuropeptides B/W receptor type 1 (P48145 whole entry): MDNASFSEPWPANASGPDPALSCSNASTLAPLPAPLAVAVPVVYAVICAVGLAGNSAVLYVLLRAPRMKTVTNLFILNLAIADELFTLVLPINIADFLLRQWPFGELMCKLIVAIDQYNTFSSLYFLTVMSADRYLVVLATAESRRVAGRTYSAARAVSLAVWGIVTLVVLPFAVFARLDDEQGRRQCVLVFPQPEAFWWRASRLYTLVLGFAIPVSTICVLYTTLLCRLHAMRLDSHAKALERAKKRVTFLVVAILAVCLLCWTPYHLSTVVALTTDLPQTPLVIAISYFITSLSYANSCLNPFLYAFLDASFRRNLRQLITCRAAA
Chain of Melanocortin receptor 4 (P32245 whole entry): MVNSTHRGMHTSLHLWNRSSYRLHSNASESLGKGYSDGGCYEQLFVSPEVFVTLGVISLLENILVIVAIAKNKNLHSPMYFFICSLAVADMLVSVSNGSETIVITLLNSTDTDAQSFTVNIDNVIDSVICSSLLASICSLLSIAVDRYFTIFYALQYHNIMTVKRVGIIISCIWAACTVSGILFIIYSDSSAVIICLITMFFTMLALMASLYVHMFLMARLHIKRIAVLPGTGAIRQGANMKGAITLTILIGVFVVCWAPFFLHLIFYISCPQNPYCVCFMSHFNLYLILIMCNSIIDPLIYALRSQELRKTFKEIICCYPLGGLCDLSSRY

Compound: COc1cc(C(=S)N2CCOCC2)ccc1OC(=O)c1ccc([N+](=O)[O-])cc1[N+](=O)[O-]
IC50 (Melanocortin receptor 4): > 64.6 µM (inactive)
IC50 [1]: > 64.6 µM (inactive)

Ki [2]: > 7.94 µM (inactive)
Ki [3]: 2 µM (active)
Ki [4]: 0.0316 µM (active)
Ki [5]: > 3.16 µM (inactive)
Ki [6]: > 10 µM (inactive)
Ki [7]: > 10 µM (inactive)
Ki [8]: 6.31 µM (active)
Ki [9]: > 7.94 µM (inactive)
Ki [10]: > 10 µM (inactive)
Ki [11]: > 10 µM (inactive)
Compound: NC1CCCCC1Nc1nccc(Nc2ccccc2C(=O)O)n1 (centres undefined)

IC50 [12]: 0.368 µM (active)
IC50 [13]: 11.2 µM (inactive)
Compound: O=c1c(Oc2ccc3c(c2)OCO3)c(Cl)cnn1Cc1cccc2ccccc12
